# Laboratory results published in article PMC5104457, “ATP-Competitive MLKL Binders Have No Functional Impact on Necroptosis” (PLoS ONE, 2016).
# pKd: −log10 of the molar value.
# Columns and labels:
# [1] = biological target: T1, full length MLKL (Homo sapiens, UniProt Q8NB16); assay: KINOMEscan ATP-competitive probe displacement (competition binding) assay, MLKL; details: average of duplicates
# T1 construct: purchased DiscoverX (KINOMEscan service); host or cells: HEK-293
# T1 sequence (Q8NB16 1-471): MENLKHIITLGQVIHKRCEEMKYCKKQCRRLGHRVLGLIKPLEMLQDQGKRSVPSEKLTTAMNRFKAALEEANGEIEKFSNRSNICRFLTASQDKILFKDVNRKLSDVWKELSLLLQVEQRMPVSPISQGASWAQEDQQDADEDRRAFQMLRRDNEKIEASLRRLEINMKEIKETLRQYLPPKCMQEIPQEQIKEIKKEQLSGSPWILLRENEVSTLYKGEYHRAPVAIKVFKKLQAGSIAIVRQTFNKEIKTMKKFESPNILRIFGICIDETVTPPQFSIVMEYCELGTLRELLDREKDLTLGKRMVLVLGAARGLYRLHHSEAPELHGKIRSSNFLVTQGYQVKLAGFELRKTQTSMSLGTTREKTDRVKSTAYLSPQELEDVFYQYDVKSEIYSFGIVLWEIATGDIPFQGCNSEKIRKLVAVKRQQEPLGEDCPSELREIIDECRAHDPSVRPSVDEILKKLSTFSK
# Experimental: Compound binding constants (KDs) were determined at DiscoverX using their KINOMEscan assay platform. […] Briefly, full length MLKL was expressed in HEK-293 cells as a fusion with an NFκB DNA binding domain and subsequently tagged with a qPCR detection amplicon via interaction with NFκB. […] Twenty microliters of binding reactions were carried out in 384-well polypropylene plates for 1 hour at room temperature. Beads were subsequently washed and resuspended in elution buffer for 30 minutes at room temperature with shaking. The concentration of MLKL in the eluates was measured by qPCR and compound binding constants were calculated using a standard dose-response curve.
# (§1) A similar approach was used to measure binding affinities for RIPK1 and RIPK3 kinase domains.
# [2] = biological target: T2, RIPK3 kinase domain (Homo sapiens, UniProt Q9Y572); assay: ATP-competitive probe displacement assay, RIPK3; type: binding
# T2 construct: purchased DiscoverX
# Experimental: Compound binding constants (KDs) were determined at DiscoverX using their KINOMEscan assay platform. This competition binding assay was previously described in Karaman et al. (2008)[18]. Briefly, full length MLKL was expressed in HEK-293 cells as a fusion with an NFκB DNA binding domain and subsequently tagged with a qPCR detection amplicon via interaction with NFκB. […] Twenty microliters of binding reactions were carried out in 384-well polypropylene plates for 1 hour at room temperature. Beads were subsequently washed and resuspended in elution buffer for 30 minutes at room temperature with shaking. The concentration of MLKL in the eluates was measured by qPCR and compound binding constants were calculated using a standard dose-response curve.
# as §1
# [3] = system: FADD (-/-) Jurkat cells; assay: Viability experiment in the absence of TNF; type: cell-based; details: FADD deficient Jurkat cells, Fig 3A
# Experimental: Necroptosis assays were performed at Charles River Laboratories (United Kingdom) and at Biogen. […] On the day of the experiment, cells were counted using Nexcelom Bioscience Cell Meter Vision and pelleted by centrifugation. Cell pellets were resuspended in fresh medium at 500,000 cells per mL and transferred to assay-ready compound plates prepared in 384-well white TC plates (Greiner #781080) at 20μl cells per well. Cells and compound were incubated at room temperature for 30 minutes followed by +/- stimulation with 15ng/ml TNF-α (Cell signalling Technologies #8902LF) overnight at 37°C. In the morning, plates were equilibrated to room temperature for 30 minutes and 25μl of CellTiter-Glow (CellTiter-Glo 2.0 Assay, Promega # G9243) diluted 1:4 in PBS was added to each well and allowed to incubate for 10 minutes at room temperature. Luminescence was read on an Envision plate reader (Perkin Elmer). Percent viability values are calculated from separate dose response experiments identical to the percent rescue experiment except that no TNF is added to the cells. This assay is intended to identify compounds that not only don’t rescue, but are toxic themselves. 100% Viability is defined as the intensity value of the “no TNF” wells, cell treated with neither compound nor TNF. […]
# [4] = biological target: T3, N-terminal domain HSP90α (Homo sapiens, UniProt P07900); assay: Differential scanning fluorimetry (thermal shift), Hsp90α N-terminal domain; type: binding; details: 10 μM compound, Hsp90α catalytic domain
# T3 construct: the N-terminal domain HSP90α; made in house
# Experimental: To measure the thermal stabilization of the proteins upon compound binding we employed differential scanning fluorimetry (DSF). The kinase domain of RIPK1 and the N-terminal domain HSP90α were expressed and purified as previously described. The pseudokinase MLKL-1, RIPK1 and Hsp90 were melted at 1μM final concentrations in 25mM HEPES pH 8.0, 250mM NaCl and 2.5mM DTT. Compounds were added to a final concentration of 10 μ M with a final DMSO concentration of 5%. The complexes were incubated on ice for 30 minutes. Protein Thermal Shift dye (Life Technologies) was added to 1X. The fluorescence intensities were measured using a Quantstudio real-time PCR system (Life Technologies) with excitation at 470 nm and emission at 586 nm. The samples, measured in triplicate, were heated from 25 to 85°C with a heating rate of […].
# T2 sequence (Q9Y572 21-287 limits assumed): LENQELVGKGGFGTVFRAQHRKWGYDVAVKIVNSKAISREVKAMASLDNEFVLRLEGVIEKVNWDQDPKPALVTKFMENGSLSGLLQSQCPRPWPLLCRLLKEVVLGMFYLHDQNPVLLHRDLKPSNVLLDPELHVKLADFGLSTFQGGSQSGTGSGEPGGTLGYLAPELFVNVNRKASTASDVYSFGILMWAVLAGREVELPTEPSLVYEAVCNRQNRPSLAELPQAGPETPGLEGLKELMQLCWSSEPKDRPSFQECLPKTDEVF
SMILES,pKd [1],displacement of the ATP probe from / binding to RIPK3 (in words) [2],pKd ([2]; average of duplicates),compound concentration at which cell viability became an issue [3],ΔTm at 10 µM [4]
"Nc1nccnc1C(=O)O[C@@H](C(=O)Nc1ccc(F)cc1)c1ccccc1 [cpd 4, 3-Amino-pyrazine-2-carboxylic acid (R)-(4-fluorophenylcarbamoyl)-phenyl-methyl ester]",6.64,without binding RIPK1 or RIPK3,< 4.52,,
"CN(c1ccc(NC(=O)Nc2ccc(OC(F)(F)F)cc2)cc1)c1ccnc(Nc2cccc(S(N)(=O)=O)c2)n1 [cpd 1, reference compound]",,,,> 2000 nM,1.5 °C
